{"source": "paper PMC9045296", "about": "“Development of Antifungal Peptides against Cryptococcus neoformans; Leveraging Knowledge about the cdc50Δ Mutant Susceptibility for Lead Compound Development” (Microbiology Spectrum, 2022)", "key": {"[1]": {"system": "C. neoformans wild-type strain H99", "assay": "microbe, parasite or virus in culture", "type": "cell-based, Cryptococcus neoformans", "settings": "for MIC: Cryptococcus neoformans", "method": "(§1) Our assays followed standard CLSI protocol for broth microdilution assays using yeasts ([32]). Microbes were passaged in YPD media at 37°C with mixing for 2 days before harvesting with an inoculation loop to prepare monocultures on Sabouraud Dextrose Agar (SDA) plates. Monocultures on SDA plates were incubated for 2 days at 37°C before harvesting cells for microdilution assays. RPMI media (100 μL) was charged to each of the 96 wells in a 96-well plate, with an additional 100 μL in the first column. Peptide-DMSO solution (4 μL) at 12.8 mg/mL was charged to each of the wells in the first column. The 100 μL was serially diluted by a factor of 2 from the first column to the 11th column. Microbe inoculant was then prepared. An inoculation loop was used to transfer 1–3 colonies of cells to 1 mL phosphate buffer solution (PBS). The PBS and microbe solution was made uniform by vortex mixing. Cell concentration was computed by comparing the absorbance at 530 nm to 1x McFarland standard solution and multiplying the resulting ratio by 10^7 cell/mL conversion factor. Plate inoculant was prepared by diluting the PBS microbe solution to 5000 cell/mL, in RPMI media. A 100 μL aliquot of cells was transferred to each of the wells on the plate other than column 11 for the no growth control. The operating volume was 200 μL, with 500 CFU per well for a final concentration of 2.5*10^3 cells/mL. Inoculated plates were incubated for 48 h at 37°C and read at 24 and 48 h ([33])."}, "[2]": {"system": "human red blood cells (RBCs)", "assay": "Hemolysis assay", "type": "cell-based", "settings": "human RBC, 1 h at 37°C, relative to Triton X-100", "method": "Operating conditions were 100 μL and 2.5*10^8cell/mL. […] The plate was incubated at 37°C for 1 h. […] The scans were run in triplicate."}, "[3]": {"system": "exofacial PS on C. neoformans cells", "assay": "AF350-annexin V flow cytometry assay", "type": "cell-based, Cryptococcus neoformans", "settings": "0.128 mg/mL peptide, 5*10^6 cell/mL, 20 min at 25°C, triplicate; control 0.2 ± 0.1%", "text": "We sought to determine whether the activities of the peptides were related to the lipid-flipping activity of the P4-ATPase. […] The intensity of the AF350-annexin V signal corresponds to concentration of PS on the exofacial side of the membrane. The propidium iodine signal corresponds to cell viability. […] Single cells were first selected and gated based on morphology to ensure homogeneity among the cell population (4A, 4B). We examined cells with low propidium iodine intensity (PI-A < 9 RU) and high AF350-annexin V intensity (Annexin V-A > 9 RU) (4C, 4D). Under these gating parameters there should be, respectively, low nonspecific cell death and high exofacial PS.\nStock microbes were defrosted from the –80°C freezer and were passed twice for 48 h each in YPD media. The YPD media was removed by spinning down and the supernatant was decanted. Pelletized cells were resuspended in 1 mL PBS media and washed for 5 min with incubation at 25°C and 250 RPM. Washed cells were spun down again and suspended in 1 mL of PBS solution. cells were diluted 20-fold into 1 mL fungal working solution in an eppendorf. Cell concentration was quantified via comparison to 1X McFarlain’s standard on a plate reader using the absorbance value at 530 nm. An aliquot of 1*10^6 cells in 100 μL was created (1*10^7cell/mL). A 100 μL aliquot of peptide working solution at 0.256 mg/mL was added to the cell suspension for final operating parameters of 200 μL, 0.128 mg/mL peptide, and 5*10^6cell/mL. The cells were incubated for 20 min at 25°C and 250RPM. Baseline and experimental samples were prepared in triplicate. Cells were stained using an operating concentration of 0.001 mg/mL Propidium Iodine (PI) and a 40-fold dilution of Alexa Fluor 350 labeled annexin V as per manufactures instructions. After staining the cells, samples were spun down and supernatant decanted. Cells were then fixed in 4% formaldehyde for 5 min. Fixed cells were spun down and supernatant decanted and resuspended in 400 μL 1% formaldehyde for flowcytometry. Samples were collected at a slow flow rate on a MACS Quant 10 device (Miltenyi Biotech, Auburn, CA) with 50,000 events collected per injection."}, "[4]": {"system": "C. neoformans H99", "assay": "SDS and plate spotting assay", "type": "cell-based, Cryptococcus neoformans", "settings": "H99 pretreated with 128 μg/mL peptide for 1 h at 30°C; compared to untreated or DMSO controls", "method": "Briefly, cultures of C. neoformans were grown in YPD and then spotted on YPD plates containing 0.03% SDS.\nTo test cell integrity, C. neoformans strains from 3 mL YPD overnight cultures were washed, resuspended, and serially diluted (1:10) in dH2O and spotted (5 μl) on YPD agar plates or YPD agar plates containing 0.03% SDS and incubated for 2 days at 30°C and 37°C. […] Of each strain, yeast cells were inoculated into liquid YPD with 128 μg/mL or 64 μg/mL peptide and co-incubated for 1h at 30°C. And then, 10-fold serial dilutions were prepared, and 5 μl of each was spotted on YPD and YPD agar plates containing 0.03% SDS. The results were photographed after a 48 h of incubation. Their growth was determined by serial dilutions and the fungal colonies were assessed by CFU numbers."}, "[5]": {"system": "ΔCDC50 mutant strain", "type": "cell-based, Cryptococcus neoformans", "method": "(§2) Again, 200 μL was the operating volume, 500CFU per well, 2.5*10^3 cell/mL. Plates were incubated for 48 h at 37°C and read thereafter. The Fractional Inhibitory Concentration Index were calculated in Equation 1: FICIndex=FICA/MICA+FICB/MICB"}, "[6]": {"system": "C. neoformans H99", "type": "cell-based, Cryptococcus neoformans", "method": "as §2"}, "[7]": {"system": "C. neoformans wild-type strain H99", "settings": "cited from earlier work", "text": "(§3) Recently, mutation studies discovered an essential role of Cryptococcus lipid flippase in echinocandin resistance ([6]). The lipid flippase is composed of the core P4 type ATPase (P4-ATPase) and a regulatory subunit Cdc50 ([7]). […] This loop region of Cdc50 has been reported in other organisms to bind to the P4-ATPase to regulate flippase activity ([8])."}, "[8]": {"system": "cdc50Δ mutant strain", "settings": "cited from earlier work", "text": "as §3"}, "[9]": {"system": "cdc50Δ mutant strain", "type": "cell-based, Cryptococcus neoformans", "settings": "Table S1, drug alone", "method": "as §1"}}, "note": "Like-named read-outs stand apart in the source and are kept apart here. Residues, ends and D or L forms follow the SMILES beside them. *: point of attachment. Myristoyl = CCCCCCCCCCCCCC(=O)*"}
{"compound": "CCCCCCCCCCCCCC(=O)N[C@@H](Cc1c[nH]c2ccccc12)C(=O)NCC(=O)NCC(=O)N[C@H](C(=O)N[C@@H](CCCCN)C(=O)N[C@@H](CCCCN)C(=O)N[C@@H](CC(N)=O)C(=O)N[C@@H](Cc1ccc(O)cc1)C(=O)N[C@@H](C)C(=O)O)[C@@H](C)CC", "note": "[AW9-Ma] (Myristoyl-WGGIKKNYA-OH)", "values": [{"measurement": "MIC H99", "setting": "[1]; Table S1, drug alone, wild type H99", "value": 64, "unit": "µg/mL"}, {"measurement": "hemolysis at the concentrations needed for synergy", "setting": "[2]", "value": "low amounts of hemolysis"}, {"measurement": "hemolytic activity (fractional lysis)", "setting": "[2]; varying concentrations, absorbance 410 nm", "value": "concentrate-dependent minimal amount of hemolysis"}, {"measurement": "percentage of cells with low propidium iodine (PI-A < 9 RU) and high AF350-annexin V intensity (Annexin V-A > 9 RU)", "setting": "[3]", "value": "67.6% ± 2.3"}, {"measurement": "growth in terms of CFU on agar medium with 0.03% SDS", "setting": "[4]", "value": "significantly reduced growth"}, {"measurement": "FIC ΔCDC50 Caspofungin", "setting": "[5]; Table S1, concentration of caspofungin in combination with the peptide", "value": 0.125, "unit": "µg/mL"}, {"measurement": "FIC ΔCDC50 Peptide", "setting": "[5]; Table S1, concentration of peptide in combination with caspofungin", "value": 0.125, "unit": "µg/mL"}, {"measurement": "MIC (FIC) of caspofungin in the presence of the AW9-Ma peptide", "setting": "[6]; C. neoformans wild type, combination with caspofungin", "value": 4, "unit": "µg/mL"}, {"measurement": "FIC H99 Caspofungin", "setting": "[6]; Table S1, concentration of caspofungin in combination with the peptide, H99", "value": 4, "unit": "µg/mL"}, {"measurement": "FIC H99 Peptide", "setting": "[6]; Table S1, concentration of peptide in combination with caspofungin, H99", "value": 16, "unit": "µg/mL"}]}
{"compound": "CC[C@H](C)C[C@H](C)CCCCCCCCC(=O)N[C@H]1C[C@@H](O)[C@@H](NCCN)NC(=O)[C@@H]2[C@@H](O)CCN2C(=O)[C@H]([C@H](O)CCN)NC(=O)[C@H]([C@H](O)[C@@H](O)c2ccc(O)cc2)NC(=O)[C@@H]2C[C@@H](O)CN2C(=O)[C@H]([C@@H](C)O)NC1=O", "note": "[caspofungin, reference compound]", "values": [{"measurement": "MIC", "setting": "[1]; Table S1, drug alone, wild type H99, read-out: MIC H99", "value": 16, "unit": "µg/mL"}, {"measurement": "MIC", "setting": "[1]; drug alone, H99 wild type, CLSI broth microdilution, RPMI, 2.5*10^3 cells/mL, 37°C, read at 24 and 48 h, read-out: MIC", "value": 16, "unit": "µg/mL"}, {"measurement": "MIC value of caspofungin", "setting": "[7]", "value": 16, "unit": "µg/mL"}, {"measurement": "MIC value of caspofungin", "setting": "[8]", "value": 4, "unit": "µg/mL"}, {"measurement": "MIC ΔCDC50", "setting": "[9]", "value": 4, "unit": "µg/mL"}]}
